Measured values: article PMC11644009 (Molecules, 2024)

What was measured:
[1] = test system: influenza virus A/Vladivostok/2/09 (H1N1); assay type: in vivo; conditions: compound 0.2%, 0.4 mg/ch.e. (8 mg/kg)
[2] = test system: influenza virus A/Vladivostok/2/09 (H1N1); test: Virus inhibitory activity on chicken embryo model (chemical therapeutic index); assay type: in vivo; conditions: samples 0.0016%–0.2% (0.003–0.4 mg per chicken embryo), Rimantadine 10 µg/mL, Tamiflu 6 µg/mL
Method: Rimantadine® (Olainfarm, Olaine, Latvia), alpha-methyltricyclo[3.3.1.1/.7]decan-1-methanamine (in the form of hydrochloride)) was used as a comparison drug at a dose of 10 µg /mL and Tamiflu® (Oseltamivir, Hoffmann-La Roche, Basel, Switzerland, (3R,4R,5S)-4-acetylamino-5-amino-3-(1-ethylpropoxy)-1-cyclohexene-1-carboxylic acid ethyl […], phosphate)) at a dose of 6 µg /mL.
To determine the chemical therapeutic index (CTI), the virus inhibitory activity of samples was studied at concentrations from 0.0016% to 0.2%, which corresponded to doses of 0.003–0.4 mg per chicken embryo (0.06–8 mg/kg) (Table 2).

[3] = test system: neuraminidase activity of influenza virus A/Vladivostok/2/09 (H1N1); test: Effect on neuraminidase activity (fluorescent kit); assay type: biochemical; conditions: maximum dose 1 mg/100 μL
Method: To determine the effect of lupinine derivatives 1–5 on neuraminidase activity, the maximum dose of 1 mg/100 μL was used. It was established (Figure 3) that compounds 4 and 5 were able to alter the neuraminidase activity of influenza viruses. It was shown that these two triazole-containing lupinines suppressed neuraminidase activity by no more than 40%.
The determination of the neuraminidase activity of the studied samples was carried out using a fluorescent kit in accordance with the manufacturer’s recommendations (AbCam, Cambridge, UK). The non-fluorescent neuraminidase substrate becomes highly fluorescent when cleaved by neuraminidase. The signal is easily read by fluorescence at Ex/Em = ~320/~450 nm.
Figure 3 The influence of the studied samples on neuraminidase activity.

[4] = test system: hemagglutinating activity of influenza A/Vladivostok/2/09 (H1N1) virus; test: Effect on hemagglutinating activity of influenza virus; conditions: maximum dose 1 mg/100 μL
Method: The hemagglutinating activity of viruses was determined according to the standard method [53] using a 0.75% suspension of chicken erythrocytes. When determining the effect of the studied sample on hemagglutinating properties, the sample in different doses was mixed with the virus, and after 30 min of incubation at 37 °C, the hemagglutinating activity was determined using the standard method.

Row | Compound | Decrease in Influenza Virus Infectivity Titer, lg [1] [lg] | Chemical Therapeutic Index of the Studied Sample [2] | Suppression of neuraminidase activity [3] | Suppression of hemagglutinating activity [4]
1 | c1ccc(-c2cn(C[C@@H]3CCCN4CCCC[C@H]34)nn2)cc1 [Compound 3, (1S,9aR)-1-[(4-Phenyl-1H-1,2,3-triazol-1-yl)methyl]octahydro-2H-quinolizine] | 0.0 | 8.1 |  | 
2 | CC(N)C12CC3CC(CC(C3)C1)C2 (stereo not drawn) [Rimantadine, alpha-methyltricyclo[3.3.1.1/.7]decan-1-methanamine, reference compound] |  | 30 |  | 
3 | O=Cc1ccc(OCc2cn(C[C@@H]3CCCN4CCCC[C@H]34)nn2)cc1 [Compound 4, 4-({1-[((1S,9aR)-Octahydro-2H-quinolizin-1-yl)methyl]-1H-1,2,3-triazol-4-yl}methoxy)benzaldehyde] |  | 40.0 | no more than 40% | 
4 | COc1ccc(-c2cn(C[C@@H]3CCCN4CCCC[C@H]34)nn2)cc1 [Compound 1, (1S,9aR)-1-{[4-(4-Methoxyphenyl)-1H-1,2,3-triazol-1-yl]methyl}octahydro-2H-quinolizine] |  | 64.0 |  | 
5 | CCOC(=O)C1=C[C@@H](OC(CC)CC)[C@H](NC(C)=O)[C@@H](N)C1 [Tamiflu, (3R,4R,5S)-4-acetylamino-5-amino-3-(1-ethylpropoxy)-1-cyclohexene-1-carboxylic acid ethyl ether, phosphate, reference compound] |  | 11.0 |  | 
6 | CCc1cc(C(=O)OCc2cn(C[C@@H]3CCCN4CCCC[C@H]34)nn2)c(O)c(C(C)(C)C)c1 [Compound 5, {1-[((1S,9aR)-Octahydro-2H-quinolizin-1-yl)methyl]-1H-1,2,3-triazol-4-yl}methyl-3-tert-butyl-2-hydroxy-5-ethylbenzoate] |  | >100.0 | no more than 40% | no less than 25%
7 | Cc1cccc(-c2cn(C[C@@H]3CCCN4CCCC[C@H]34)nn2)c1 [Compound 2, (1S,9aR)-1-{[4-(m-Tolyl)-1H-1,2,3-triazol-1-yl]methyl}octahydro-2H-quinolizine] | 0.8 | 57.0 |  | 
